Test results: US4299820A, “Therapeutic process employing amides of L and DL phenylglycines” (Pfizer Inc., priority 1977, dated 1981)
Square brackets hold non-standard residues; d marks the D form. Peptide text beside a SMILES is read from it. Hpg = N[C@H](C(=O)O)c1ccc(O)cc1

Columns and labels:
[1] = test system: diaphragm tissue from fat-fed rats; test: Pyruvate oxidation by diaphragm tissue from fat-fed rats in vitro (14C from labelled pyruvate into CO2); parameters: species or system rat; conditions: diaphragm tissue from rats fed on a high fat diet
Experimental: Representative compounds of the formula (II) have been tested for their ability to increase the oxidation of glucose and/or pyruvate as follows:
Diaphragm tissue is obtained from rats fed on a high fat diet similar to `Diet B` described by Zaragoza and Felber [Horm.Metab. Res., 2, 323 (1970)]. Pyruvate oxidation by such tissue is assessed by measurement of the rate of incorporation of carbon-14 from carbon-14-labelled pyruvate into carbon dioxide in vitro, as described by Bringolf [Eur. J. Biochem., 26, 360 (1972)]. The rate of pyruvate oxidation is depressed by 50%-75% compared with that by diaphragm tissue from rats fed on a normal diet. When the compounds of the formula (II) are added to the medium, they are found to stimulate pyruvate oxidation by diaphragm tissue from fat-fed rats in a dose dependent manner.

[2] = test system: pyruvate dehydrogenase enzyme; test: Proportion of active form of pyruvate dehydrogenase (PDHa/PDHt) in hearts of fat-fed rats after treatment; assay type: in vivo; conditions: fat-fed rat heart, after 11/2 hours
Experimental: The ability of compounds of formula (II) to increase the proportion of the active form of the pyruvate dehydrogenase enzyme has been measured in the following test:
Rats fed on a high fat diet as in the previous test, are treated either with placebo or with the compound of formula (II) by subcutaneous or intravenous injection or by oral administration. After 11/2 hours the rat hearts are removed and homogenized under conditions which minimize changes in the proportion of the pyruvate dehydrogenase enzyme (PDHt) which is present in the active form, as described by Whitehouse and Randle [Biochem. J., 134, 651 (1973)]. The total amount of the enzyme present (PDHt) and the amount which is present in the active form (PDHa) are assessed by a method similar to that described by Taylor et al. [J. Biol. Chem., 248, 73 (1973)]. The fat-feeding process is found to depress the ratio PDHa/PDHt from a normal value of about 0.7 to a value in the range from 0.05 to 0.2. Treatment of fat-fed rats with the compounds of formula (II) either parenterally or orally, increases this ratio in a dose-dependent manner.

SMILES: Br.CC[C@H](C)[C@H](N)C(=O)N[C@H](C(=O)OC)c1ccc(O)cc1.O [Example 9, L,L-Methyl N-isoleucyl-2-(4-hydroxyphenyl)glycinate hydrobromide monohydrate] (H-Ile-[Hpg]-OMe)
- % Stimulation (pyruvate oxidation) ([1]; Concentration 2 mM): 35%
- PDHa/PDHt ratio, compound ([2]; Dose 1.2 mmoles/kg p.o.): 0.24
- PDHa/PDHt ratio, compound ([2]; Dose 1.2 mmoles/kg s.c.): 0.48

SMILES: Br.COC(=O)[C@@H](NC(=O)[C@@H](N)c1ccc(O)cc1)c1ccc(O)cc1 [Example 1, L,L-Methyl N-[2-(4-hydroxyphenyl)glycyl]-2-(4-hydroxyphenyl)glycinate hydrobromide] (H-[Hpg]-[Hpg]-OMe)
- % Stimulation (pyruvate oxidation) ([1]; Concentration 0.25 mM): 23%
- PDHa/PDHt ratio, compound ([2]; Dose 1.2 mmoles/kg p.o.): 1.00

SMILES: Br.COC(=O)[C@@H](NC(=O)[C@H](C)N)c1ccc(O)cc1 [Example 7, L,L-Methyl N-alanyl-2-(4-hydroxyphenyl)glycinate hydrobromide] (H-Ala-[Hpg]-OMe)
- % Stimulation (pyruvate oxidation) ([1]; Concentration 2 mM): 61%

SMILES: Br.CC[C@H](C)[C@H](N)C(=O)N[C@H](C(=O)O)c1ccc(O)cc1 [Example 10, L,L-N-isoleucyl-2-(4-hydroxyphenyl)glycine hydrobromide] (H-Ile-[Hpg]-OH)
- % Stimulation (pyruvate oxidation) ([1]; Concentration 2 mM): 10%
- PDHa/PDHt ratio, compound ([2]; Dose 0.6 mmoles/kg p.o.): 0.72
- PDHa/PDHt ratio, compound ([2]; Dose 0.6 mmoles/kg s.c.): 0.86

SMILES: Br.Br.N[C@H](C(=O)N[C@H](C(=O)O)c1ccc(O)cc1)c1ccc(O)cc1.N[C@H](C(=O)N[C@H](C(=O)O)c1ccc(O)cc1)c1ccc(O)cc1.O [Example 3, L,L-N-[2-(4-hydroxyphenyl)glycyl]-2-(4-hydroxyphenyl)glycine hydrobromide hemihydrate] (H-[Hpg]-[Hpg]-OH)
- % Stimulation (pyruvate oxidation) ([1]; Concentration 0.25 mM): 39%
- PDHa/PDHt ratio, compound ([2]; Dose 1.2 mmoles/kg p.o.): 0.75

SMILES: Br.C[C@H](N)C(=O)N[C@H](C(=O)O)c1ccc(O)cc1 [Example 8, L,L-N-Alanyl-2-(4-hydroxyphenyl)glycine hydrobromide] (H-Ala-[Hpg]-OH)
- % Stimulation (pyruvate oxidation) ([1]; Concentration 2 mM): 23%
- PDHa/PDHt ratio, compound ([2]; Dose 0.6 mmoles/kg p.o.): 0.56
- PDHa/PDHt ratio, compound ([2]; Dose 0.6 mmoles/kg s.c.): 0.77
